Assay: Human HepG2 cell viability assay in 384 well format
Type: toxicity, cell-based
Design: dose 125 nL, time 70.5 hour; concentration not given beside the values
Details: HepG2 cells, read-out: Inhibition

| Compound | cytotoxicity at 70.5 h [%] |
| --- | --- |
| Cc1cnc(NCc2csc(C(C)C)n2)nc1-c1cnn(C)c1 | -14.9 |
| CCc1nc2c(c(NC3CC3)n1)CCN(C(=O)N1CCN(C)CC1)CC2 | -19.1 |
| Cc1ccc(NC2CCN(C(=O)CCc3ccncc3)CC2)nn1 | -7.44 |
| O=C(CCNS(=O)(=O)c1ccc(F)c(F)c1)NCc1ccoc1 | -3.45 |
| COc1ccc(C(=O)N(Cc2cnn(C)c2)C(C)C)cc1OC(F)F | -3.59 |
| CCN(CC)C(=O)[C@@H]1C[C@H](NC(=O)c2cccn2C(C)C)CN1C | -9.19 |
| Cc1noc(C)c1CN1CC2(CCN(C(=O)c3c[nH]cn3)C2)CC1=O (stereo not drawn) | -11.1 |
| COCC1CN(Cc2ccc(C)o2)Cc2cn(C)nc21 (stereo not drawn) | 3.14 |
| Cn1ccc(NC(=O)CN2C[C@H]3CC[C@@H]2CN(Cc2ccccn2)C3)n1 | -3.7 |
| COc1ccc(C(=O)N2C[C@@H](NC(=O)N(C)C)[C@H](C(C)C)C2)c(OC)n1 | -11.2 |
| O=C1[C@H]2CN(Cc3cccs3)C[C@H]2CN1c1cncnc1 | -6.91 |
| CCC(O)CN1CCN(C(=O)CCSC)CC1 (stereo not drawn) | 0.756 |
| Cc1nc(CN2CCCC(N(C)CC3CCCC3)C2)no1 (stereo not drawn) | 0.0887 |
| O=C(O)c1cc2c(nc1-c1ccncc1)CCN(C1CCOC1)CC2 (stereo not drawn) | -4.07 |
| CC(=O)NC1CC(C)(C)Cc2c1cnn2-c1cccc(F)c1 (stereo not drawn) | -9.9 |
| COc1cccc(C(=O)N2C[C@@H](C(=O)O)[C@H](c3ccccc3C)C2)c1 | 6.74 |
| CCOCc1cccc(S(=O)(=O)Nc2ncc(C)s2)c1 | 3.25 |
| N#Cc1cc(F)c(NCCc2cccnc2)c(F)c1 | -4.91 |
| CS(=O)(=O)CCCOc1cccc(-n2cccn2)c1 | 12.8 |
| CS(=O)(=O)N1CC2(CCN(C3CCCCC3)C2)Cc2ccccc21 (stereo not drawn) | 0.278 |
| COCC(=O)N1CC[C@@H](O)[C@@H]1Cc1ccccc1 | 5.48 |
| CN(C)CCNC(=O)c1cc2n(n1)CCN(C(=O)CC(C)(C)C)C2 | -9.74 |
| Fc1ccc(Cc2cnc(C3CCCN3)cn2)cc1 (stereo not drawn) | 16.8 |

| Compound | cytotoxicity at 70.5 h [%] |
| --- | --- |
| COc1ccc(C(=O)C2CCCN(Cc3ccc(C)o3)C2)c(OC)c1 (stereo not drawn) | -4.07 |
| Cc1nn(C)c(C)c1C1CCCN1C(=O)c1cc[nH]n1 (stereo not drawn) | -3.7 |
| Cc1nc(CN(C)C(=O)c2ccc(Cn3cnnn3)cc2)cs1 | 21.4 |
| Cc1n[nH]c(C)c1CCC(=O)N(C)Cc1cn[nH]c1-c1ccc(F)cc1 | 5.04 |
| O=S(=O)(C1CC1)N1CCOCC2(CN(c3ncccn3)CCO2)C1 (stereo not drawn) | -9.2 |
| Cc1ccc(S(=O)(=O)N2CCC(c3n[nH]cc3C)C2)cc1 (stereo not drawn) | -1.04 |
| COCCC1(CO)CCCN(Cc2ccc(C(F)(F)F)nc2)C1 (stereo not drawn) | -1.12 |
| NC(=O)C1CCCN1Cc1ccccc1NC(=O)Cc1cccc(F)c1 (stereo not drawn) | -0.431 |
| Cc1cccc(C(=O)NCCCN2CCc3ccccc3C2)c1C | -7.53 |
| Cc1nnsc1CN1C[C@@H]2CC[C@H](C1)N(Cc1ccccc1)C2 | 8.69 |
| Cc1ccc(C(C)NC(=O)Cc2c(C)nc3cc(=O)[nH]n3c2C)s1 (stereo not drawn) | -10.8 |
| Cc1nnc(CN2CCCC2c2ccc(C(C)(C)C)cc2)o1 (stereo not drawn) | -3.63 |
| Cc1cnn(CC(C)NCc2csc(-c3ccsc3)n2)c1 (stereo not drawn) | -0.817 |
| O=C(c1ccncc1F)N1CCCC(c2nccn2CC2CCC2)C1 (stereo not drawn) | -21.7 |
| Cc1nn(-c2ccccc2)cc1C(=O)N1CCCC(n2ccnc2)C1 (stereo not drawn) | -0.753 |
| Cc1ccc(OCCCNC(=O)C2(C)CC(=O)N3C=CC=CC3=N2)cc1 (stereo not drawn) | -3.61 |
| CN(C)CCN(Cc1ccc(Cl)cc1)C(=O)c1ccn(C)c(=O)c1 | -5.83 |
| COC(=O)c1cccc(S(=O)(=O)Nc2ncc(C)s2)c1 | 0.827 |
| COc1nn(C)cc1-c1nnc(SCc2cccnc2)n1C | -5.69 |
| CCSCCC(=O)Nc1ncn(Cc2cccnc2)n1 | -9.89 |
| CCC(=O)Nc1cc(Br)cn(C)c1=O | 23.5 |
| CC(C)CC(NC(=O)c1cc(C2CC2)n[nH]1)c1ncnn1C (stereo not drawn) | 20.9 |
| Cn1c(Cn2ccnc2)nnc1C1CCN(C(=O)c2ccncc2)CC1 | -5.75 |

| Compound | cytotoxicity at 70.5 h [%] |
| --- | --- |
| CCN(Cc1nccn1C)C(=O)c1ccc(NCC(C)C)nc1 | -6.64 |
| CNS(=O)(=O)c1ccc(C(=O)N2CCCC2c2ccccc2)o1 (stereo not drawn) | -14.1 |
| COc1ccc(Oc2cc(CN)ccn2)cc1 | 2.32 |
| CCOC(=O)c1cnn(C2CCN(C(=O)CC3CCCC3)CC2)c1N | -2.45 |
| O=C(c1cc(COc2ccc3c(c2)OCO3)[nH]n1)N1CCSCC1 | -0.532 |
| CCCn1nccc1C(=O)N1CCCN(CCCc2ccccc2)CC1 | -7.2 |
| CCO[C@H]1COC[C@@H]1NC(=O)c1c[nH]nc1C1CCCCC1 | 19.5 |
| CN1C(=O)C[C@H]2[C@H]1CCN2Cc1cccc(C#N)c1 | -11.7 |
| Cc1cnc(C(=O)N(C)[C@@H]2CCC[C@@H](Oc3ccccc3)[C@@H]2O)cn1 | 16.9 |
| CCOc1ccc(CN2CCC(c3ccn[nH]3)C2)cc1CO (stereo not drawn) | 3.78 |
| CN(C)Cc1nn(C)c2c1CCN(C(=O)c1cnccn1)C2 | 17.9 |
| COC(=O)c1ccn(CC(=O)Nc2nn(CC3CC3)c3ccccc23)n1 | -0.998 |
| O=C(NCc1ccc(OCC2CC2)nc1)C1COc2ccccc2O1 (stereo not drawn) | -5.51 |
| O=C(c1ccccn1)N1CCC2(CCCN(c3nncs3)C2)C1 (stereo not drawn) | -9.42 |
| Cc1ccc(CSc2nc(N)cc(NCC(=O)N3CCNCC3)n2)cc1 | -4.01 |
| CCc1cc(O)nc(C2CCCN2C(=O)c2cc(CC)on2)n1 (stereo not drawn) | -5.67 |
| COCCNCC1(O)CCCN(Cc2ccc(F)c(F)c2)C1=O (stereo not drawn) | -2.23 |
| O=C(CCc1cccs1)N1CCC(N2CCNC2=O)CC1 | -0.95 |
| CCn1ccnc1CN1CCN(CC(O)c2ccccc2)CC1 (stereo not drawn) | -15.4 |
| CN(Cc1ccco1)C(=O)c1ccc(=O)n(C)c1 | -6.1 |
| c1ccc(CN2Cc3nccn3CC(Cn3cccn3)C2)nc1 (stereo not drawn) | -3.5 |
| Cc1cccc(N2CC[C@@H]3CN(C(=O)c4ccco4)CCO[C@@H]3C2)n1 | -13.8 |
| CCOc1ccc(C(F)(F)F)cc1NC(=O)N1CCNC(=O)C1 | -1.6 |

| Compound | cytotoxicity at 70.5 h [%] |
| --- | --- |
| CN1CC2(CCC1=O)CCN(CC[C@@H](O)c1ccccc1)CC2 | 19.6 |
| CN(C)Cc1nnc(C2CCCN(c3nccc4ccccc34)C2)n1C (stereo not drawn) | -12.2 |
| CCC(C)(NCc1ncc(C(C)C)o1)c1nccs1 (stereo not drawn) | 1.37 |
| CC(C)CN1CCC(NC(=O)c2ccc(F)cc2F)CC1 | 0.0411 |
| Cc1nccn1CCC1CCN(c2ncccn2)CC1 | -6.44 |
| COCCOc1ccc(NC(=O)C2CC(=O)N(C3CC3)C2)cn1 (stereo not drawn) | -4.78 |
| Cc1cnc(N2CCOC(C(=O)NCc3ccccc3)C2)s1 (stereo not drawn) | -15.2 |
| Cc1nc2ccc(CN3CC4(CCOC4)CCC3=O)cc2[nH]1 (stereo not drawn) | -1.05 |
| O=c1cc(CN(CCO)C2CC2)nc2ccc(Br)cn12 | -4.99 |
| COc1ccccc1-c1cc(C(=O)N2CCCC2)c2cnn(C)c2n1 | -5.55 |
| COc1ccc(C(=O)CNC(=O)c2nc(Cl)sc2C(C)C)cc1 | 25 |
| c1ccc(O[C@H]2CC[C@H]3[C@H]2OCCN3Cc2nccs2)nc1 | -9.23 |
| CN(CC1(O)CCCN(CCC2CCCCC2)C1=O)C1CCOCC1 (stereo not drawn) | -5.64 |
| CC(C)(C)c1c[nH]c([C@@H]2COCCN2C2CCC2)n1 | -4.17 |
| NCC1(CN2CCOCC2)CCCCC1 | 14.2 |
| CCc1ncc2c(n1)CN(Cc1nc(-c3ccco3)oc1C)CC2 | -7.47 |
| COc1ccc(OC)c(C2CCN(C(=O)C3CCOCC3)C2)c1 (stereo not drawn) | -6.78 |
| CNC(=O)N1CCC2(CC1)CC[C@@]1(C(=O)NC)CN(S(C)(=O)=O)C[C@@H]21 | -0.00397 |
| CCc1cc(CNC(=O)Nc2cc(F)ccc2N2CCCCC2)on1 | -2.62 |
| CC(C)OCCCN(Cc1ccncc1)Cc1cccc(F)c1F | 22.3 |
| CC[C@H]1CN(S(=O)(=O)c2ccc(OC)cc2)CC[C@H]1CC(=O)O | -9.14 |
| O=C(c1nc2c(s1)CCCN2C(=O)C1CC1)N1CCCC1 | -3.91 |
| CC(Cc1ccco1)NC(=O)CSc1nnc[nH]1 (stereo not drawn) | -9.49 |

| Compound | cytotoxicity at 70.5 h [%] |
| --- | --- |
| CC(Cc1ccco1)NS(=O)(=O)N1CCCCC1 (stereo not drawn) | -6.18 |
| NC(=O)CCCNC(=O)Cc1cccc(I)c1 | -1.69 |
| c1cc(C2CN(C3CCCC3)C2)n[nH]1 | -1.02 |
| Cc1nccn1CCCC(=O)N1CCC2(CCC(=O)N(C(C)C)C2)CC1 | -4.22 |
| COCCC(=O)N1CCN(CC2CC2)c2ccccc21 | -3.57 |
| CCS(=O)(=O)N(C)c1ccc(C(=O)N2CCCC(C)C2)cc1 (stereo not drawn) | -7.21 |
| Cc1cc(C)n(CC(=O)N2CCC(NS(=O)(=O)c3ccccc3)CC2)n1 | -5.45 |
| Cc1ccccc1NC(=O)Nc1c[nH]c(=O)[nH]c1=O | -9.84 |
| Cc1occc1C(=O)NCC(=O)NCCOc1ccc2c(c1)CCC2 | -10.4 |
| O=C(COc1ccc2cccnc2c1)N1CCN[C@H]2CS(=O)(=O)C[C@H]21 | 18.5 |
| COc1ccccc1CNc1ncnc2c1NC(=O)CN2 | -6.12 |
| Cc1cnn(CC2CCCCN2Cc2nnsc2Cl)c1 (stereo not drawn) | -7.35 |
| COc1ccc(C)cc1-n1cnnc1C1CCOCC1 | -2.32 |
| Cc1cn[nH]c1C1COCCN1C(=O)c1ccc2c(c1)CCCC2 (stereo not drawn) | -3.65 |
| COCC1c2nnn(C)c2CCN1C(=O)Cc1ccccn1 (stereo not drawn) | -3.79 |
| CC(C)c1ncc(CN2CCC(c3n[nH]cc3C(=O)N(C)C)C2)cn1 (stereo not drawn) | -2.3 |
| CC(C)c1cc(C(=O)NC2CCN(CC(N)=O)CC2)nn1C(C)(C)C | -10.3 |
| CNC(=O)[C@@]12CCO[C@@H]1CCN(Cc1ccc3c(c1)OCO3)C2 | 9.37 |
| CNc1ccc(CC2CCCN(C(=O)c3cnccn3)C2)nn1 (stereo not drawn) | -14.4 |
| O=C1CC(c2ccc(C(=O)O)cc2)c2ncn(-c3cccnc3)c2N1 (stereo not drawn) | -2.41 |
| O=S(=O)(c1cccc(F)c1)N1C[C@@H]2COC[C@]2(COCC2CC2)C1 | 4.21 |
